For experiment [1], the system named is genotype A, “Long” strain RSV. Put plainly: RSV-A assay (CPE, ATPlite readout in Hep-2 cells). The experiment is classed as cell-based, Human respiratory syncytial virus. Particulars: human respiratory syncytial virus, activity class. An outline of the steps:
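ATPlite luminescence (cellular ATP) served as the measure of cell health after 5 days of infection. Hep-2 cells at 8,000 per well received duplicate 2-fold compound dilutions plus virus at MOI 0.1, and EC50 was calculated from CPE protection.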

Experiment [2] deals with HMPV clinical isolate A2 strain TN 94-49. Put plainly: HMPV antiviral assay, Method 2 (LLC-MK2 cells with CP-100-356, ATP-Lite). The experiment is classed as cell-based. The conditions noted are these: human metapneumovirus. An outline of the steps:
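EC50 comes from a four-parameter fit of percent cell viability (ATP-Lite, normalized to virus-only and cell-only wells) after 7 days at 37 °C. Infection used HMPV A2 TN 94-49 at MOI 0.16 in LLC-MK2 cells, with 2 μM P-gp inhibitor CP-100-356 and 2 μg/mL TPCK-trypsin final; dose range 200 nM top, 2.5-fold, 10 points, duplicate.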

[3] abbreviates: hMPV A2 TN/94-49, LLC-MK2 cells with CP-100-356, Method 2.
The mark [4] stands for this setting: 168 h, hMPV A2 TN/94-49, LLC-MK2 cells with 4 μM CP-100-356, 7 days, ATP-Lite.

For `COc1cc(C(=O)NC[C@](O)(c2cc3c(c(-c4ccnc(C(F)(F)F)c4Cl)n2)OC[C@]3(C)C(N)=O)C(F)(F)F)cc2oc(C3CC3)nc12` [Example 536], the EC50 in experiment [1] and in experiment [2] (setting [3]) was under 200 nM each time.
As for `COc1cc(C(=O)NC[C@](O)(c2cc3c(c(-c4ccsc4)n2)OC[C@]3(C)C(N)=O)C2CC2)cc2cn(C3CC3)nc12` [Example 413], the half-maximal effective concentration (EC50) in experiment [1] and in experiment [2] (setting [3]) was under 200 nM each time.
Take `COc1cc(C(=O)NC[C@](O)(c2cc3c(c(-c4cc(C(F)(F)F)c(F)cc4F)n2)OC[C@]3(C)C(N)=O)C2CC2)cc2cc(C3CC3)nn12` [Example 327]: the EC50 in experiment [1] and in experiment [2] (setting [3]) was under 200 nM in each case.
Turning to `COc1cc(C(=O)NC[C@](O)(c2cc3c(c(-c4cc(F)nc(F)c4)n2)OC[C@]3(C)C(N)=O)C2CC2)cc2cn(C3CC3)nc12` [Example 390], the EC50 in experiment [1] and in experiment [2] (setting [3]) was under 200 nM in each case.
Turning to `COc1cc(C(=O)NC[C@@](O)(C#CC(C)(C)O)c2cc3c(c(-c4cc(Cl)c(F)cc4F)n2)OC[C@]3(C)C(N)=O)cc2cn(C3CC3)nc12` [Example 477], the EC50 in experiment [1] was under 200 nM; in experiment [2] (setting [3]), over 200 nM.
On to `COc1cc(C(=O)NC[C@](O)(c2cc3c(c(-c4ccc5c(c4)OC(F)(F)O5)n2)OC[C@]3(C)C(N)=O)C2CC2)cc2cc(Cl)cnc12` [Example 107], for which the EC50 in experiment [1] and in experiment [2] (setting [3]) was under 200 nM each time.
With `COc1cc(C(=O)NC[C@@](O)(c2ccccc2)c2cc3c(c(-n4ncc5c(F)cccc54)n2)OC[C@]3(C)C(N)=O)cc2cc(C3CC3)nn12` [Example 630], the EC50 in experiment [1] and in experiment [2] (setting [4]) was under 200 nM in each case.
As to `COc1cc(C(=O)NC[C@](O)(c2cc3c(c(-c4cc(Cl)c(F)cc4F)n2)OC[C@]3(C)C(N)=O)C(C)C)cc2cn(C3CC3)nc12` [Example 476], the EC50 in experiment [1] and in experiment [2] (setting [3]) was under 200 nM in each case.
`COc1cc(C(=O)NC[C@](O)(c2cc3c(c(-c4ccnc(C(F)F)c4Cl)n2)OC[C@]3(C)C(N)=O)C2CC2)cc2cn(C3(F)CC3)nc12` [Example 786]: the concentration for a half-maximal effect (EC50) in experiment [1] and in experiment [2] (setting [4]) was under 200 nM throughout.
As to `COc1cc(C(=O)NC[C@@](O)(c2ccccc2)c2cc3c(c(-n4ncc5c(F)cccc54)n2)OC[C@]3(C)C(N)=O)cc2cn(C3(F)CC3)nc12` [Example 629], the EC50 in experiment [1] and in experiment [2] (setting [4]) was under 200 nM each time.
Regarding `COc1cc(C(=O)NC[C@](O)(c2cc3c(c(-c4cc(F)c(F)cc4F)n2)OC[C@]3(C)C(N)=O)C2CC2)cc2cc(Cl)nnc12` [Example 114], the half-maximal effective concentration (EC50) in experiment [1] and in experiment [2] (setting [3]) was under 200 nM throughout.
Take `COc1cc(C(=O)N(C)C[C@](O)(c2cc3c(c(-c4ccc(F)c(Cl)c4)n2)OC[C@@]3(C(N)=O)C(F)F)C2CC2)cc2cn(C3CC3)nc12` [Example 351]: the EC50 in experiment [1] and in experiment [2] (setting [3]) was over 200 nM each time.
Regarding `COc1cc(C(=O)NC[C@](O)(c2cc3c(c(-n4ncc5c(F)cccc54)n2)OC[C@]3(C)C(N)=O)C2CC2)cc2cn(C3(F)CC3)nc12` [Example 613], the EC50 in experiment [1] and in experiment [2] (setting [3]) was under 200 nM each time.
As to `COc1cc(C(=O)NC[C@@](O)(CN(C)C)c2cc3c(c(-c4cc(Cl)c(F)cc4F)n2)OC[C@]3(C)C(N)=O)cc2cn(C3CC3)nc12` [Example 238], the EC50 is under 200 nM in experiment [1] and over 200 nM in experiment [2] (setting [3]).
For `COc1cc(C(=O)NC[C@@](O)(c2cccc(F)c2)c2cc3c(c(-c4cc(C(F)(F)F)ncc4F)n2)OC[C@]3(C)C(N)=O)cc2cn(C3CC3)nc12` [Example 408], the EC50 in experiment [1] and in experiment [2] (setting [3]) was under 200 nM each time.
On to `COc1cc(C(=O)NC[C@](O)(c2cc3c(c(-c4ccnc(C(F)F)c4Cl)n2)OC[C@]3(C)C(N)=O)C2CC2)cc2cn(C(F)F)nc12` [Example 785], for which the EC50 in experiment [1] and in experiment [2] (setting [4]) was under 200 nM throughout.
`COc1cc(C(=O)NC[C@@](O)(c2ccccc2)c2cc3c(c(-c4ccnc(F)c4Cl)n2)OC[C@]3(C)C(N)=O)cc2cc(Cl)cnc12` [Example 346]: the EC50 in experiment [1] and in experiment [2] (setting [3]) was under 200 nM each time.
With `COc1cc(C(=O)NC[C@](O)(c2cc3c(c(-c4ccc(F)c(Cl)c4Cl)n2)OC[C@]3(C)C(N)=O)C2CC2)cc2oc(C3CC3)nc12` [Example 318], the EC50 in experiment [1] and in experiment [2] (setting [3]) was under 200 nM throughout.
Consider `COc1cc(C(=O)NC[C@](O)(c2cc3c(c(-c4ccnc(C5CC5)c4Cl)n2)OC[C@]3(C)C(N)=O)C2CC2)cc2cn(C3CC3)nc12` [Example 721], for which the EC50 in experiment [1] and in experiment [2] (setting [4]) was under 200 nM each time.
Take `COc1cc(C(=O)NC[C@](O)(c2cc3c(c(-n4ccc5c(F)cccc54)n2)OC[C@]3(C)C(N)=O)C(F)(F)F)cc2cn(C3CC3)nc12` [Example 851]: the EC50 in experiment [1] and in experiment [2] (setting [4]) was under 200 nM throughout.
As to `COc1cc(C(=O)NC[C@](O)(c2cc3c(c(-c4ccnc(C(F)(F)F)c4F)n2)OC[C@]3(C)C(N)=O)C2CC2)cc2cn(C3CC3)nc12` [Example 794], the EC50 in experiment [1] and in experiment [2] (setting [4]) was under 200 nM throughout.
In the case of `COc1nccc(-c2nc([C@@](O)(CNC(=O)c3cc(OC4CC4)c4nn(C5CC5)cc4c3)C3CC3)cc3c2OC[C@]3(C)C(N)=O)c1Cl` [Example 585], the EC50 in experiment [1] and in experiment [2] (setting [3]) was under 200 nM each time.
Turning to `COc1cc(C(=O)NC[C@](O)(c2cc3c(c(-n4ccc5c(F)cccc54)n2)OC[C@]3(C)C(N)=O)C2(F)CC2)cc2cn(C3CC3)nc12` [Example 861], the EC50 in experiment [1] and in experiment [2] (setting [4]) was under 200 nM throughout.
For `COc1cc(C(=O)NC[C@](O)(c2cc3c(c(-c4ccnc(C)c4Cl)n2)OC[C@]3(C)C(N)=O)C2(F)CC2)cc2cn(C3CC3)nc12` [Example 531], the EC50 in experiment [1] and in experiment [2] (setting [3]) was under 200 nM in each case.
Take `COc1cc(C(=O)NC[C@](O)(c2cc3c(c(-c4ccnc(F)c4Cl)n2)OC[C@]3(C)C(N)=O)C2CC2)cc2cn(C3CC3)nc12` [Example 122]: the EC50 in experiment [1] and in experiment [2] (setting [3]) was under 200 nM throughout.
Consider `COc1cc(C(=O)NC[C@](O)(c2cc3c(c(-c4cc(C(F)(F)F)ncc4F)n2)OC[C@]3(C)C(N)=O)C2CC2)cc2cc(C3CC3)nn12` [Example 661], for which the concentration giving a half-maximal response (EC50) in experiment [1] and in experiment [2] (setting [4]) was under 200 nM each time.
Regarding `COc1cc(C(=O)NC[C@](O)(c2cc3c(c(-n4ccc5c(F)cccc54)n2)OC[C@]3(C)C(N)=O)C2CC2)cc2cn(C3(F)CC3)nc12` [Example 777], the EC50 in experiment [1] and in experiment [2] (setting [4]) was under 200 nM each time.
Take `COc1cc(C(=O)NC[C@](O)(c2cc3c(c(-n4ccc5c(F)cccc54)n2)OC[C@]3(C)C(N)=O)C2CC2)cc2cn(C(F)F)nc12` [Example 776]: the EC50 in experiment [1] and in experiment [2] (setting [4]) was under 200 nM in each case.
On to `COc1cc(C(=O)NC[C@](O)(c2cccc(F)c2)c2cc3c(c(-c4ccnc(F)c4Cl)n2)OC[C@]3(C)C(N)=O)cc2cn(C3(F)CC3)nc12` [Example 402], for which the EC50 in experiment [1] and in experiment [2] (setting [3]) was over 200 nM each time.
As to `C[C@]1(C(N)=O)COc2c1cc([C@@](O)(CNC(=O)c1cc(OC3CC3)c3ncc(Cl)cc3c1)C1CC1)nc2-c1ccc2c(c1)OC(F)(F)O2` [Example 108], the concentration giving a half-maximal response (EC50) in experiment [1] and in experiment [2] (setting [3]) was under 200 nM throughout.
Regarding `COc1cc(C(=O)NC[C@](O)(c2cc3c(c(-c4cc(C)ncc4F)n2)OC[C@]3(C)C(N)=O)C2CC2)cc2cn(C3CC3)nc12` [Example 412], the EC50 in experiment [1] and in experiment [2] (setting [3]) was under 200 nM in each case.
As for `COc1cc(C(=O)NC[C@@](O)(c2ccccc2)c2cc3c(c(-c4ccnc(F)c4Cl)n2)OC[C@]3(C)C(N)=O)cc2oc(C3CC3)nc12` [Example 345], the EC50 in experiment [1] and in experiment [2] (setting [3]) was under 200 nM throughout.
In the case of `COc1cc(C(=O)NC[C@](O)(c2cc3c(c(-n4ccc5cc(F)ccc54)n2)OC[C@]3(C)C(N)=O)C(F)(F)F)cc2cn(C3CC3)nc12` [Example 852], the EC50 in experiment [1] and in experiment [2] (setting [4]) was under 200 nM in each case.
As for `COc1cc(C(=O)NC[C@](O)(c2cc3c(c(-c4ccc(F)c(Cl)c4Cl)n2)OC[C@]3(C)C(N)=O)C2CC2)cc2cc(Cl)cnc12` [Example 320], the EC50 in experiment [1] and in experiment [2] (setting [3]) was under 200 nM each time.
Turning to `COc1cc(C(=O)NC[C@@](O)(c2cccc(F)c2)c2cc3c(c(-c4ccnc(F)c4Cl)n2)OC[C@]3(C)C(N)=O)cc2cn(C3(F)CC3)nc12` [Example 401], the concentration giving a half-maximal response (EC50) in experiment [1] and in experiment [2] (setting [3]) was under 200 nM throughout.
On to `COc1cc(C(=O)NC[C@](O)(c2cc3c(c(-n4ncc5c(F)cccc54)n2)OC[C@]3(C)C(N)=O)C2CC2)cc2oc(C3CC3)nc12` [Example 622], for which the EC50 in experiment [1] and in experiment [2] (setting [4]) was under 200 nM throughout.
As for `COc1cc(C(=O)NC[C@](O)(c2cc3c(c(-c4ccnc(C(F)F)c4Cl)n2)OC[C@]3(C)C(N)=O)C2CC2)cc2cn(C3CC3)nc12` [Example 780], the concentration giving a half-maximal response (EC50) in experiment [1] and in experiment [2] (setting [4]) was under 200 nM in each case.
As for `COc1cc(C(=O)NC[C@](O)(c2cc3c(c(-c4ccc(F)c(Cl)c4Cl)n2)OC[C@]3(C)C(N)=O)C2CC2)cc2cc(C3CC3)nn12` [Example 324], the 50% effective concentration (EC50) in experiment [1] and in experiment [2] (setting [3]) was under 200 nM each time.
For `COc1cc(C(=O)NC[C@](O)(c2cc3c(c(-c4cccc(F)c4Cl)n2)OC[C@]3(C)C(N)=O)C2CC2)cc2cn(C3(F)CC3)nc12` [Example 615], the EC50 in experiment [1] and in experiment [2] (setting [3]) was under 200 nM throughout.
Take `COC1=CC(C(=O)NC[C@](O)(c2cc3c(c(-c4ccnc(C(F)(F)F)c4F)n2)OC[C@]3(C)C(N)=O)C2CC2)=CC2OC(C3CC3)=NC12` (some centres unmarked) [Example 801]: the EC50 in experiment [1] and in experiment [2] (setting [4]) was under 200 nM in each case.

The values are drawn from US20240368174A1, “Antiviral Heterocyclic Compounds” (Enanta Pharmaceuticals, Inc., priority 2023, published 2024).
